Experimental data published in US7109338B2, “1,2-disubstituted 1,4-dihydro-4-oxoquinoline compounds” (priority 1999, dated 2006).
≈ marks a conversion by molar mass, not a printed value.

Columns and labels:
[1] = tested on: coxsackievirus type A7 (CA7); experiment: In vitro anti-picornavirus activity (MTT), CA7; type: cell-based; details: HeLa-S3 cells, MTT method, 37° C.
[2] = tested on: human rhinovirus type 1B (HRV 1B, B632); experiment: Anti-rhinovirus activity (MTT), HRV1B; type: cell-based; details: HeLa (Ohio strain) cells, MTT method, 33° C.
[3] = tested on: coxsackievirus type B4 (CB4,JVB); experiment: In vitro anti-picornavirus activity (MTT), CB4; type: cell-based; details: HeLa cells, MTT method, 37° C.
[4] = tested on: Poliovirus type 1 (Polio 1, Sabin); experiment: microbe, parasite or virus in culture; type: cell-based
HeLa (Ohio strain)cells = experiment: Cytotoxicity (MTT, without virus), HeLa(Ohio); details: HeLa(Ohio), no virus, incubated for 4 days
HRV 2 (HGP) = experiment: Anti-rhinovirus activity (MTT), HRV2; type: cell-based, human rhinovirus; details: HeLa (Ohio strain) cells, MTT method, 33° C.
[5] = tested on: echovirus type 11 (Echo 11, Gregory); experiment: In vitro anti-picornavirus activity (MTT), Echo 11; type: cell-based; details: HeLa-S3 cells, MTT method, 37° C.
HeLa-S3 cells = experiment: Cytotoxicity (MTT, without virus), HeLa-S3; details: HeLa-S3, no virus, incubated for 4 days
HRV 89 (41617-Gallo) = experiment: Anti-rhinovirus activity (MTT), HRV89; type: cell-based, human rhinovirus; details: HeLa (Ohio strain) cells, MTT method, 33° C.
HeLa cells = experiment: Cytotoxicity (MTT, without virus), HeLa; details: HeLa, no virus, incubated for 4 days

Row | Compound | IC50 CA7 [1] | IC50 HRV1B [2] | IC50 CB4 [3] | IC50 Polio 1 [4] | Cytotoxicity CC50 HeLa(Ohio) (HeLa (Ohio strain)cells) | IC50 HRV2 (HRV 2 (HGP)) | IC50 Echo 11 [5] | Cytotoxicity CC50 HeLa-S3 (HeLa-S3 cells) | IC50 HRV89 (HRV 89 (41617-Gallo)) | Cytotoxicity CC50 HeLa (HeLa cells)
1 | CCn1c(-c2ccccc2)c(C)c(=O)c2cc(NCC(C)C)ccc21.O [Compound A159] | 2.7 µg/mL | 0.78 µg/mL | 3.0 µg/mL | 0.51 µg/mL | >5 µg/mL | 0.48 µg/mL | 0.26 µg/mL | >5 µg/mL | 0.73 µg/mL | >5 µg/mL
2 | CCn1c(-c2ccccc2)c(C)c(=O)c2cc(NCC(C)C)ccc21.Cl [Compound A160] | 2.7 µg/mL | 0.73 µg/mL | 2.9 µg/mL | 0.55 µg/mL | >5 µg/mL | 0.45 µg/mL | 0.27 µg/mL | >5 µg/mL | 0.78 µg/mL | >5 µg/mL
3 | CCn1c(-c2ccccc2)c(C)c(=O)c2cc(N3CCOCC3)ccc21 [Compound A169] | >50 µg/mL | 8.2 µg/mL (≈ 23.5 µM) | 18 µg/mL (≈ 51.7 µM) | 4.3 µg/mL (≈ 12.3 µM) | >50 µg/mL | 1.0 µg/mL (≈ 2.87 µM) | 1.1 µg/mL (≈ 3.16 µM) | >50 µg/mL | 5.4 µg/mL (≈ 15.5 µM) | >50 µg/mL
4 | CCn1c(-c2ccccc2)c(C)c(=O)c2cc(-c3ccccc3)ccc21 [Compound A171] | 1.9 µg/mL (≈ 5.6 µM) | 0.43 µg/mL (≈ 1.27 µM) | 2.0 µg/mL (≈ 5.89 µM) | 0.52 µg/mL (≈ 1.53 µM) | >2.5 µg/mL | 0.76 µg/mL (≈ 2.24 µM) | 0.22 µg/mL (≈ 0.648 µM) | >2.5 µg/mL | 0.39 µg/mL (≈ 1.15 µM) | >2.5 µg/mL
5 | CCn1c(-c2ccccc2)c(C)c(=O)c2c(Cl)c(OCC(C)C)ccc21 [Compound A179] | 2.4 µg/mL (≈ 6.49 µM) | 0.86 µg/mL (≈ 2.33 µM) | 1.2 µg/mL (≈ 3.24 µM) | 0.29 µg/mL (≈ 0.784 µM) | >4 µg/mL | 0.87 µg/mL (≈ 2.35 µM) | 0.20 µg/mL (≈ 0.541 µM) | >4 µg/mL | 0.37 µg/mL (≈ 1 µM) | >4 µg/mL
6 | CCn1c(-c2cccc(C)c2)c(C)c(=O)c2c(Cl)c(OCC(C)C)ccc21 [Compound A181] | 2.4 µg/mL (≈ 6.25 µM) | 1.6 µg/mL (≈ 4.17 µM) | 1.8 µg/mL (≈ 4.69 µM) | 0.39 µg/mL (≈ 1.02 µM) | >2.5 µg/mL | 0.94 µg/mL (≈ 2.45 µM) | 0.24 µg/mL (≈ 0.625 µM) | >2.5 µg/mL | 0.46 µg/mL (≈ 1.2 µM) | >2.5 µg/mL
7 | Cc1c(OCC(C)C)ccc2c1c(=O)cc(-c1ccccc1)n2C [Compound A186] | 3.0 µg/mL (≈ 9.33 µM) | 1.1 µg/mL (≈ 3.42 µM) | 1.2 µg/mL (≈ 3.73 µM) | 0.67 µg/mL (≈ 2.08 µM) | 5.0 µg/mL | >1.7 µg/mL | 0.27 µg/mL (≈ 0.84 µM) | >5 µg/mL | 0.26 µg/mL (≈ 0.809 µM) | >5 µg/mL
8 | CCn1c(-c2ccccc2)cc(=O)c2c(C)c(OCC(C)C)ccc21 [Compound A187] | 3.0 µg/mL (≈ 8.94 µM) | 0.71 µg/mL (≈ 2.12 µM) | 0.99 µg/mL (≈ 2.95 µM) | 0.53 µg/mL (≈ 1.58 µM) | >4 µg/mL | 0.57 µg/mL (≈ 1.7 µM) | 0.21 µg/mL (≈ 0.626 µM) | >4 µg/mL | 0.15 µg/mL (≈ 0.447 µM) | >4 µg/mL
9 | CCn1c(-c2ccccc2)c(C)c(=O)c2c(C)c(OCC(C)C)ccc21 [Compound A188] | 1.2 µg/mL (≈ 3.43 µM) | 0.81 µg/mL (≈ 2.32 µM) | 1.1 µg/mL (≈ 3.15 µM) | 0.31 µg/mL (≈ 0.887 µM) | >5 µg/mL | 0.33 µg/mL (≈ 0.944 µM) | 0.27 µg/mL (≈ 0.773 µM) | >5 µg/mL | 0.25 µg/mL (≈ 0.715 µM) | >5 µg/mL
10 | COc1ccc(-c2c(C)c(=O)c3c(C)c(OCC(C)C)ccc3n2C)cc1C [Compound A190] | 3.2 µg/mL (≈ 8.43 µM) | 2.0 µg/mL (≈ 5.27 µM) | 2.4 µg/mL (≈ 6.32 µM) | 0.58 µg/mL (≈ 1.53 µM) | >4 µg/mL | 0.57 µg/mL (≈ 1.5 µM) | 0.23 µg/mL (≈ 0.606 µM) | >4 µg/mL | 0.28 µg/mL (≈ 0.738 µM) | >4 µg/mL
11 | Cc1c(-c2ccccc2)n(C)c2ccc(OCC(C)C)c(N)c2c1=O.Cl [Compound A194] | 1.7 µg/mL | 0.05 µg/mL | 1.3 µg/mL | 0.58 µg/mL | >2.5 µg/mL | 0.49 µg/mL | 0.45 µg/mL | >2.5 µg/mL | 0.18 µg/mL | >2.5 µg/mL
12 | COc1c(OCC(C)C)ccc2c1c(=O)c(C)c(-c1ccccc1)n2C [Compound A196] | 9.7 µg/mL (≈ 27.6 µM) | 5.9 µg/mL (≈ 16.8 µM) | 1.9 µg/mL (≈ 5.41 µM) | 1.1 µg/mL (≈ 3.13 µM) | >10 µg/mL | 1.8 µg/mL (≈ 5.12 µM) | 0.44 µg/mL (≈ 1.25 µM) | >10 µg/mL | 0.86 µg/mL (≈ 2.45 µM) | >10 µg/mL
13 | COc1cc2c(=O)c(C)c(-c3ccccc3)n(C)c2cc1C(C)C [Compound A226] | 9.7 µg/mL (≈ 30.2 µM) | 1.6 µg/mL (≈ 4.98 µM) | >3.3 µg/mL | 0.93 µg/mL (≈ 2.89 µM) | >10 µg/mL | 0.73 µg/mL (≈ 2.27 µM) | 0.33 µg/mL (≈ 1.03 µM) | >10 µg/mL | <0.033 µg/mL | >10 µg/mL
14 | Cc1cc2c(cc1OCC(C)C)c(=O)c(C)c(-c1ccccc1)n2C [Compound A234] | 3.8 µg/mL (≈ 11.3 µM) | 1.0 µg/mL (≈ 2.98 µM) | 2.5 µg/mL (≈ 7.45 µM) | 0.89 µg/mL (≈ 2.65 µM) | >5 µg/mL | 0.26 µg/mL (≈ 0.775 µM) | 0.25 µg/mL (≈ 0.745 µM) | >5 µg/mL | 0.32 µg/mL (≈ 0.954 µM) | >5 µg/mL
15 | CCn1c(-c2ccccc2)c(C)c(=O)c2cc(OCC(C)C)c(C)cc21 [Compound A235] | 2.8 µg/mL (≈ 8.01 µM) | 0.75 µg/mL (≈ 2.15 µM) | 2.9 µg/mL (≈ 8.3 µM) | 0.72 µg/mL (≈ 2.06 µM) | >4 µg/mL | 0.24 µg/mL (≈ 0.687 µM) | 0.27 µg/mL (≈ 0.773 µM) | >4 µg/mL | 0.35 µg/mL (≈ 1 µM) | >4 µg/mL
